From patent publication US8133849B2, “Herbicidal compounds” (Syngenta Limited, priority 2007, dated 2012)

Tests used:
Test in all cases: Example B2 herbicidal action, post-emergence, pots in glasshouse, damage score 0-10
Type in all cases: in vivo
Details in all cases: application post-emergence, rate 1000 g/ha, evaluated after 13 days
Setaria faberi = system: Setaria faberi
In short: (§1)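 Pot-grown plants were sprayed post-emergence at 8 days with active ingredient in aqueous spray derived from acetone/water (50:50) containing 0.5% Tween 20. Glasshouse conditions were 24/16° C day/night, 14 h light and 65% humidity, with watering twice daily. Damage was scored 13 days after spraying.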

Echinochloa crus-galli = system: Echinochloa crus-galli
In short: as §1

Amaranthus retroflexus = system: Amaranthus retroflexus
In short: as §1

Solanum nigrum = system: Solanum nigrum
In short: as §1

Ipomea hederaceae = system: Ipomea hederaceae
In short: as §1

Structure (SMILES) | SETFA damage score (10=total damage to plant; 0=no damage to plant) (Setaria faberi) | ECHCG damage score (10=total damage to plant; 0=no damage to plant) (Echinochloa crus-galli) | AMARE damage score (10=total damage to plant; 0=no damage to plant) (Amaranthus retroflexus) | SOLNI damage score (10=total damage to plant; 0=no damage to plant) (Solanum nigrum) | IPOHE damage score (10=total damage to plant; 0=no damage to plant) (Ipomea hederaceae)
CCN1c2nccnc2C(OC(=O)C(C)(C)C)=C(c2c(Cl)ccc(Cl)c2Cl)S1(=O)=O [Compound C72] | 1 | 6 | 9 | 10 | 10
CCN1c2nccnc2C(OC(=O)C(C)C)=C(c2ccc(Cl)c(Cl)c2)S1(=O)=O [Compound C26] | 0 | 0 | 9 | 0 | 0
O=S1(=O)C(c2c(C(F)(F)F)ccc(Cl)c2Cl)=C(O)c2nccnc2N1CC(F)F [Compound D57] | 10 | 9 | 10 | 10 | 7
CC(C)C(=O)OC1=C(c2c(Cl)ccc(Cl)c2C(F)(F)F)S(=O)(=O)N(CC(F)F)c2nccnc21 [Compound C53] | 5 | 8 | 8 | 5 | 4
CCN1c2nccnc2C(OC(=O)C(C)C)=C(c2cccc(C(F)(F)F)c2Cl)S1(=O)=O [Compound C75] | 0 | 1 | 5 | 6 | 2
CC(C)C(=O)OC1=C(c2cc(Cl)cc(C(F)(F)F)c2)S(=O)(=O)N(CC(F)F)c2nccnc21 [Compound C149] | 0 | 0 | 10 | 8 | 0
CC(C)C(=O)OC1=C(c2ccc(Cl)cc2Cl)S(=O)(=O)N(CCF)c2nccnc21 [Compound C58, isobutyric acid 3-(2,4-dichloro-phenyl)-1-(2-fluoroethyl)-2,2-dioxo-1,2-dihydro-2-λ-6-thia-1,5,8-triaza-naphthalen-4-yl ester] | 4 | 6 | 10 | 9 | 9
CCN1c2nccnc2C(OS(=O)(=O)C(F)(F)F)=C(c2ccc(Cl)cc2C(F)(F)F)S1(=O)=O [Compound C29, trifluoromethanesulfonic acid-3-(4-chloro-2-trifluoromethylphenyl)-1-ethyl-2,2-dioxo-1,2-dihydro-2-λ-6-thia-1,5,8-triaza-naphthalen-4-yl ester] | 0 | 4 | 2 | 5 | 5
CC(C)C(=O)OC1=C(c2ccc(Cl)cc2Cl)S(=O)(=O)N(CC(F)(F)F)c2nccnc21 [Compound C57] | 3 | 4 | 10 | 10 | 10
CCN1c2nccnc2C(OC(=O)C(C)C)=C(c2c(Cl)ccc(Cl)c2C(F)(F)F)S1(=O)=O [Compound C50] | 4 | 5 | 5 | 6 | 7
CCSC(=O)OC1=C(c2cccc(Cl)c2Cl)S(=O)(=O)N(CC(F)F)c2nccnc21 [Compound C101] | 2 | 5 | 4 | 10 | 8
CC(C)(C)C(=O)OC1=C(c2ccc(I)cc2Cl)S(=O)(=O)N(CC(F)F)c2nccnc21 [Compound C141] | 0 | 2 | 7 | 8 | 7
O=S1(=O)C(c2ccc(Cl)cc2Cl)=C(O)c2nccnc2N1CC(F)(F)F [Compound D51] | 1 | 2 | 7 | 8 | 7
CC(C)C(=O)OC1=C(c2ccccc2[N+](=O)[O-])S(=O)(=O)N(CC(F)F)c2nccnc21 [Compound C65] | 2 | 0 | 2 | 2 | 1
C#CCN1c2nccnc2C(OC(=O)C(C)(C)C)=C(c2c(Cl)ccc(Cl)c2C(F)(F)F)S1(=O)=O [Compound C86] | 2 | 5 | 5 | 6 | 4
CCN1c2nccnc2C(OC(=O)C(C)C)=C(c2ccccc2C(F)(F)F)S1(=O)=O [Compound C63] | 7 | 7 | 9 | 9 | 10
CC(C)C(=O)OC1=C(c2cc(C(F)(F)F)ccc2Br)S(=O)(=O)N(CC(F)F)c2nccnc21 [Compound C59] | 3 | 7 | 10 | 10 | 10
CC(C)C(=O)OC1=C(c2cc(C(F)(F)F)ccc2Cl)S(=O)(=O)N(C)c2nccnc21 [Compound C90] | 1 | 2 | 8 | 10 | 9
COc1ccc(Cl)c(C2=C(O)c3nccnc3N(CC(F)F)S2(=O)=O)c1F [Compound D60] | 2 | 4 | 1 | 7 | 8
C=CCN1c2nccnc2C(OC(=O)SCC)=C(c2cc(Cl)ccc2C(F)(F)F)S1(=O)=O [Compound C119] | 3 | 5 | 3 | 6 | 3
CC(C)C(=O)OC1=C(c2ccc(Cl)cc2Cl)S(=O)(=O)N(CC(F)(F)C(F)F)c2nccnc21 [Compound C122] | 3 | 2 | 5 | 9 | 6
